The results in this text go back to patent publication US12048320B2, “Process for preparing high density, thermostable polysaccharide beads as food additives” (DNA CATCHER, S.L, priority 2019, dated 2024).

The nature of series [1]: End point (maximum) amount of water miscible solvent in hydrated DB. The class given is physicochemical. As to conditions: MV alginate, 1:1.25 alginate:water. The method, then:
Hydrated DB beads were prepared as example 1 using MV alginate. In this case, the water was used to achieve alginate within the hydrated beads to be 44.44% (w/w), which means 125 mL water and 100 g MV alginate (1:1.25 alginate:water ratio). WMS were propylene glycols (PG), glycerol, polyethylene glycol (PEG400) and absolute ethanol. Then, different amounts of volatile and non-volatile water miscible solvents (WMS) were added slowly to the hydrated beads under high shear mixing. The end point (the optimized amount of WMS) was calculated by monitoring physical properties of hydrated beads including size and hardness as described in examples 1 & 2. […] Beads then were cross-linked, washed and dried as described in example 1.
The end point (end point ratio by weight (alginate:water:WMS)) in table 14 means the maximum amount of WMS that allows to obtain acceptable bead hardness (more than 1 kg/cm^2/g beads) and acceptable size range of both wet and dry beads according to the established criteria in table 3 and 4, example 1.

A short description of series [2]: Limonene loss post baking of pancakes (gas chromatography). The class given is physicochemical. As to conditions: pancakes baked at 200° C. for 15 min. The method, then: The amount of D-limonene was assayed pre and post baking. For this purpose, 10 ml of distilled water was added to 5 g pancakes. Then, 30 ml methanol was added and the mixture was centrifuged at 3000 rpm for 20 min for further assay by gas chromatography. The % of lost limonene post packing as the following equation and expressed as the % of lost limonene post packing (w/w): % of lost limonene post baking (w/w)=(Initial amount added before backing−Residual amount of limonene found in baked pancakes)[…] Results

Structures are written as SMILES.

Turning to `CC(O)CO` (centres unmarked) [Propylene glycols (PG), propylene glycols], in series [1], the “Total maximum amount of WMS expressed as % w/w” value (from here on “Total maximum amount … as % w/w”) is listed as 36.61 % w/w. For `C=C(C)[C@H]1CC=C(C)CC1` [Free limonene, (4R)-1-methyl-4-(1-methylethenyl)-cyclohexene], the “The % of lost limonene one day post packing (w/w), Mean” value in series [2] (one day) is 89.56 % (w/w). In addition, the “The % of lost limonene one month post packing (w/w), Mean” value in series [2] (one month) is 93.23 % (w/w). For `OCC(O)CO` [Glycerol, glycerol], the “Total maximum amount … as % w/w” value in series [1] is 34.78 % w/w.

For `CCO` [Ethanol, absolute ethanol], in series [1], the “Total maximum amount … as % w/w” value stood at 25.00 % w/w.
